The record followed here is PMC8863579, “Effects of pharmacological inhibition of the sodium‐dependent phosphate cotransporter 2b (NPT2b) on intestinal phosphate absorption in mouse and rat models” (Pharmacology Research & Perspectives, 2022).

Molecules are shown by their SMILES.

In this assay the target is T1, Human NPT2a (Homo sapiens, UniProt Q06495).
T1 construct: Full Length cDNA Cloning and Generation of Cell Lines Over-Expressing Human NPT2a, NPT2c, Pit1, and Pit2; host or cells: CHO-K1 / T-REx CHO, pJTI R4 CMV-TO, tetracycline-induced
T1 sequence (Q06495 1-639): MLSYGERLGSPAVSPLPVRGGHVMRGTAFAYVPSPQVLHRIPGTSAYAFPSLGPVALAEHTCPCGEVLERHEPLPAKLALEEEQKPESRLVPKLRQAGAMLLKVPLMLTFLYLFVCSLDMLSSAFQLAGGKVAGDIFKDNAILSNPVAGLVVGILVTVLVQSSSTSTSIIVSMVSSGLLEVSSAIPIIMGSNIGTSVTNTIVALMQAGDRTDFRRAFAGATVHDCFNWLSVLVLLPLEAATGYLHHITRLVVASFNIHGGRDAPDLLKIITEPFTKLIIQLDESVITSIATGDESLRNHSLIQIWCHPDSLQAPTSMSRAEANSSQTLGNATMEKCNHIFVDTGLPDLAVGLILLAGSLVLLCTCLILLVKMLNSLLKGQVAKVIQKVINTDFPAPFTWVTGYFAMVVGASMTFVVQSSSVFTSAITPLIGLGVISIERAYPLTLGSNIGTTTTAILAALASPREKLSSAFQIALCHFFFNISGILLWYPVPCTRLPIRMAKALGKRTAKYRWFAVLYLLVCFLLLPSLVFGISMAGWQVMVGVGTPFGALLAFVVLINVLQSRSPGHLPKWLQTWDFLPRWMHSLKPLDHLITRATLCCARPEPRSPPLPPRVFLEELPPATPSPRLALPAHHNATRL
Briefly: 33P-phosphate uptake in CHO cells expressing human NPT2a. In kind it is cell-based. How it is done: T‐Rex™ Chinese Hamster Ovary cells (CHO; Thermo Fisher Scientific) stably expressing human, mouse, or rat NPT2b under a tetracycline‐inducible promoter were generated using standard cDNA transfection and clone selection procedures (see Supporting Information). Cells were plated in 96‐well CytoStar‐T® scintillating microplates and were incubated overnight in growth media plus 100 ng/ml of tetracycline to induce expression of NPT2b. The next day, cells were washed 3 times with 200 µl assay buffer (137 mM NaCl, 5.4 mM KCl, 2.8 mM CaCl2, 1.2 mM MgSO4, and 14 mM Tris‐HCl buffer, pH 7.5). LY3358966 serially diluted 1‐to‐3 in DMSO was added to cells with assay buffer. An equal volume of H3 ^33PO4 (PerkinElmer) in assay buffer supplemented with 5 µM potassium phosphate was then added to initiate radiolabeled phosphate (^33P‐phosphate) uptake. […] The plate was immediately read on a Wallac MicroBeta Trilux liquid scintillation counter. Percent inhibition at all concentrations tested was calculated, and IC50 values were then determined using a 4‐parameter logistic curve fitting equation.
Similar methods were used to measure the effects of LY3358966 on other transporters of interest, except that constitutive promoters were used to generate CHO cells over‐expressing human PiT1 and PiT2. The ^33P‐phosphate uptake was measured after 45 min at 20°C for the NPT2a, NPT2c, PiT1, and PiT2 assays. […]

Regarding `CC1(C)CN(C(=O)NCCCCO)CCN1Cc1cccc(C(=O)Nc2sc3c(c2C(=O)Nc2cc(F)c(CCc4ccc(C(=O)O)cc4)c(F)c2)CCCC3)c1` [LY3358966, 4‐[2‐[2,6‐difluoro‐4‐[[2‐[[3‐[[4‐(4‐hydroxybutylcarbamoyl)‐2,2‐dimethyl‐piperazin‐1‐yl]methyl]benzoyl]amino]‐4,5,6,7‐tetrahydrobenzothiophene‐3‐carbonyl]amino]phenyl]ethyl]benzoic acid], under “geometric mean, 45 min at 20°C”, half-maximal inhibition (IC50) required 0.011 µM. Also, the Selectivity (ratio of IC50 of human NPT2a assay to that of human NPT2b assay) amounted to 0.3.
